Data taken from patent publication US20200078468A1, “NEUROTENSIN RECEPTOR BINDING CONJUGATES AND FORMULATIONS THEREOF” (priority 2016, published 2020).
Where two headings read alike, the source gives them in different places. Square brackets hold non-standard residues; d marks the D form. Peptide text beside a SMILES is read from it. * marks the point of attachment. X3 = COc1cccc2c1C(=O)c1c(O)c3c(c(O)c1C2=O)C[C@@](O)(C(=O)CO)C[C@@H]3O[C@H]1C[C@H](NC(=O)OCCS*)[C@H](O)[C@H](C)O1; Pen = CC(C)(S)[C@H](N)C(=O)O; Tle = CC(C)(C)[C@H](N)C(=O)O

How the values were obtained:
[1] = biological target: T1, human NTSR1 (Homo sapiens, UniProt P30989); test: radioligand-receptor binding assay, [125I] labeled neurotensin (Eurofins Panlabs)
T1 construct: host or cells: HEK-293 cells (membrane preparations)
Experimental: Conjugates were assessed in an in vitro assay evaluating binding to NTSR1. A radioligand-receptor binding assay was conducted at Eurofins Panlabs (Taiwan) to determine the affinity of conjugates described herein to NTSR1. The assay measures binding of radiolabeled ligand, [^125I] labeled neurotensin, to human NTSR1 using membrane preparations from NTSR1 expressing HEK-293 cells (Human embryonic kidney cells 293). Membranes were incubated with radiolabeled neurotensin (0.02 nM) in the presence of conjugate/compound starting at a dose of either 100 nM, or 10 nM, using 3× serial dilutions to obtain a 6-pt curve. After a 45 minute incubation, membranes were filtered and washed 3× and counted to determine the remaining [^125I] neurotensin bound to the receptor. IC50 values were determined by a non-linear, least squares regression analysis using MathIQ™ (ID Business Solutions Ltd., UK). The Ki values were calculated using the equation of Cheng and Prusoff (Cheng and Prusoff, Biochem. Pharmacol. 22:3099-3108, 1973) using the observed IC50 of the tested conjugate/compound, the concentration of radioligand employed in the assay, and the historical values for the Kd of the ligand obtained at Eurofins.

[2] = tested on: SW48 (human colon cancer cells); test: inhibition of SW48 cell proliferation (CellTiter Glo); assay type: cell-based; conditions: 72 hrs, read-out: SW-48 proliferation IC50
Outline: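 Cells plated at 5,000/well and grown 24 hrs were exposed to conjugates for 72 hrs at 37° C, 5% CO2, in a ten-point three-fold series starting at 10 μM; vehicle was 0.01% DMSO. Proliferation was read by CellTiter Glo. % inhibition was taken relative to vehicle, with IC50 from four-parameter nonlinear regression.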

[3] = [125I] neurotensin 0.02 nM, membranes from NTSR1 expressing HEK-293 cells, 45 minute incubation, Cheng and Prusoff, read-out: NTSR1 binding Ki

T1 sequence (P30989 whole entry): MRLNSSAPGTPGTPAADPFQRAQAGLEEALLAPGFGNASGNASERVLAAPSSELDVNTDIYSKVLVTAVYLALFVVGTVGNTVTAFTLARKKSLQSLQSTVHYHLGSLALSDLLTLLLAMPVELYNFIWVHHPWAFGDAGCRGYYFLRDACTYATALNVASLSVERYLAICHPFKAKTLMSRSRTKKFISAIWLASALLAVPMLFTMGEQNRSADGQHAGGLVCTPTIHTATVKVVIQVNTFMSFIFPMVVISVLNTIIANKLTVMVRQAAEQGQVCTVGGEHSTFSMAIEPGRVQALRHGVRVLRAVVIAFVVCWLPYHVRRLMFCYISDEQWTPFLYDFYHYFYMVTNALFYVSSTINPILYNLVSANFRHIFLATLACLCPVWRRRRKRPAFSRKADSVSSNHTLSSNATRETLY

With CO[C@H]1C(=O)[C@]2(C)[C@@H](OC)C[C@H]3OC[C@@]3(OC(C)=O)[C@H]2[C@H](OC(=O)c2ccccc2)[C@]2(O)C[C@H](OC(=O)[C@H](OC(=O)CCCCCN3C(=O)CC(SC(C)(C)[C@H](NC(C)=O)C(=O)N4CCC[C@H]4C(=O)N[C@@H](CCCNC(=N)N)C(=O)N[C@@H](CCCNC(=N)N)C(=O)N4CCC[C@H]4C(=O)N[C@@H](Cc4ccc(O)cc4)C(=O)N[C@H](C(=O)N[C@@H](CC(C)C)C(=O)O)C(C)(C)C)C3=O)[C@@H](NC(=O)OC(C)(C)C)c3ccccc3)C(C)=C1C2(C)C (some centres unmarked) [Compound 4] the Ki [1, 3] was 2.06 nM and the IC50 ([2]; NTSR1 targeted compound) was 138 nM.

COc1cc2cc(c1Cl)N(C)C(=O)C[C@H](OC(=O)[C@H](C)N(C)C(=O)CCSC1CC(=O)N(CCCNC(=O)CNC(=O)[C@H](CC(C)C)NC(=O)[C@H](Cc3ccccc3)NC(=O)CNC(=O)CCCCCN3C(=O)CC(SCCC(=O)NCCCC[C@H](NC(C)=O)C(=O)N4CCC[C@H]4C(=O)N[C@H](CCCNC(=N)N)C(=O)N[C@@H](CCCNC(=N)N)C(=O)N4CCC[C@H]4C(=O)N[C@@H](Cc4ccc(O)cc4)C(=O)N[C@H](C(=O)N[C@@H](CC(C)C)C(=O)O)C(C)(C)C)C3=O)C1=O)[C@]1(C)O[C@H]1[C@H](C)[C@@H]1C[C@@](O)(NC(=O)O1)[C@H](OC)/C=C/C=C(\C)C2 (some centres unmarked) [Compound 29] was tested, and the Ki [1, 3] was 1.77 nM and the IC50 ([2]; NTSR1 targeted compound) was 22 nM.

COc1cc2cc(c1Cl)N(C)C(=O)C[C@H](OC(=O)[C@H](C)N(C)C(=O)CCSC1CC(=O)N(CCCNC(=O)CNC(=O)[C@H](CC(C)C)NC(=O)[C@H](Cc3ccccc3)NC(=O)CNC(=O)CCCCCN3C(=O)CC(SC(C)(C)[C@H](NC(C)=O)C(=O)N4CCC[C@H]4C(=O)N[C@@H](CC(C)C)C(=O)N4CCC[C@H]4C(=O)N[C@@H](CCCNC(=N)N)C(=O)N[C@H](C(=O)N[C@@H](CCCNC(=N)N)C(=O)N[C@@H](Cc4ccc(O)cc4)C(=O)O)C(C)(C)C)C3=O)C1=O)[C@]1(C)O[C@H]1[C@H](C)[C@@H]1C[C@@](O)(NC(=O)O1)[C@H](OC)/C=C/C=C(\C)C2 (some centres unmarked) [Compound 81] was tested, and the Ki [1] was > 100 nM and the IC50 ([2]; NTSR1 scrambled compound) was 70 nM.

With COc1cc2cc(c1Cl)N(C)C(=O)C[C@H](OC(=O)[C@H](C)N(C)C(=O)CCSC1CC(=O)N(CCCNC(=O)CNC(=O)[C@H](CC(C)C)NC(=O)[C@H](Cc3ccccc3)NC(=O)CNC(=O)CCCCCN3C(=O)CC(SCCC(=O)NCCCC[C@H](NC(C)=O)C(=O)N4CCC[C@H]4C(=O)N[C@@H](CCCN)C(=O)N[C@@H](CCCNC(=N)N)C(=O)N4CCC[C@H]4C(=O)N[C@@H](Cc4ccc(O)cc4)C(=O)N[C@H](C(=O)N[C@@H](CC(C)C)C(=O)O)C(C)(C)C)C3=O)C1=O)[C@]1(C)O[C@H]1[C@H](C)[C@@H]1C[C@@](O)(NC(=O)O1)[C@H](OC)/C=C/C=C(\C)C2 (some centres unmarked) [Compound 37] the Ki [1, 3] was 2.35 nM and the IC50 ([2]; NTSR1 targeted compound) was 51.6 nM.

Work on COc1cc2cc(c1Cl)N(C)C(=O)C[C@H](OC(=O)[C@H](C)N(C)C(=O)CCSC1CC(=O)N(CCCNC(=O)CNC(=O)[C@H](CC(C)C)NC(=O)[C@H](Cc3ccccc3)NC(=O)CNC(=O)CCCCCN3C(=O)CC(SCCC(=O)NCCCC[C@H](NC(C)=O)C(=O)N4CCC[C@H]4C(=O)N[C@H](CCCNC(=N)N)C(=O)N[C@@H](CCN)C(=O)N4CCC[C@H]4C(=O)N[C@@H](Cc4ccc(O)cc4)C(=O)N[C@H](C(=O)N[C@@H](CC(C)C)C(=O)O)C(C)(C)C)C3=O)C1=O)[C@]1(C)O[C@H]1[C@H](C)[C@@H]1C[C@@](O)(NC(=O)O1)[C@H](OC)/C=C/C=C(\C)C2 (some centres unmarked) [Compound 30] yielded a Ki [1, 3] of 4.23 nM and an IC50 ([2]; NTSR1 targeted compound) of 42.7 nM.

With COc1cc2cc(c1Cl)N(C)C(=O)C[C@H](OC(=O)[C@H](C)N(C)C(=O)CCSC1CC(=O)N(CCCNC(=O)CNC(=O)[C@H](CC(C)C)NC(=O)[C@H](Cc3ccccc3)NC(=O)CNC(=O)CCCCCN3C(=O)CC(SC(C)(C)[C@H](NC(C)=O)C(=O)N4CCC[C@H]4C(=O)N(C)[C@@H](CCCNC(=N)N)C(=O)N[C@@H](CCCNC(=N)N)C(=O)N4CCC[C@H]4C(=O)N[C@@H](Cc4ccc(O)cc4)C(=O)N[C@H](C(=O)N[C@@H](CC(C)C)C(=O)O)C(C)(C)C)C3=O)C1=O)[C@]1(C)O[C@H]1[C@H](C)[C@@H]1C[C@@](O)(NC(=O)O1)[C@H](OC)/C=C/C=C(\C)C2 (some centres unmarked) [Compound 20] the Ki [1, 3] was 0.93 nM and the IC50 ([2]; NTSR1 targeted compound) was 6.8 nM.

Compound COc1cc2cc(c1Cl)N(C)C(=O)C[C@H](OC(=O)[C@H](C)N(C)C(=O)CCSC1CC(=O)N(CCCNC(=O)CNC(=O)[C@H](CC(C)C)NC(=O)[C@H](Cc3ccccc3)NC(=O)CNC(=O)CCCCCN3C(=O)CC(SCCC(=O)NCCCC[C@H](NC(C)=O)C(=O)N4CCC[C@H]4C(=O)N[C@H](CCCN)C(=O)N[C@@H](CCCNC(=N)N)C(=O)N4CCC[C@H]4C(=O)N[C@@H](Cc4ccc(O)cc4)C(=O)N[C@H](C(=O)N[C@@H](CC(C)C)C(=O)O)C(C)(C)C)C3=O)C1=O)[C@]1(C)O[C@H]1[C@H](C)[C@@H]1C[C@@](O)(NC(=O)O1)[C@H](OC)/C=C/C=C(\C)C2 (some centres unmarked) [Compound 35] has a Ki [1, 3] of 3.75 nM and an IC50 ([2]; NTSR1 targeted compound) of 47.3 nM.

COc1cc2cc(c1Cl)N(C)C(=O)C[C@H](OC(=O)[C@H](C)N(C)C(=O)CCSC1CC(=O)N(CCCNC(=O)CNC(=O)[C@H](CC(C)C)NC(=O)[C@H](Cc3ccccc3)NC(=O)CNC(=O)CCCCCN3C(=O)CC(SC(C)(C)[C@H](NC(C)=O)C(=O)N4CCC[C@H]4C(=O)N[C@@H](CCCNC(=N)N)C(=O)N(C)[C@@H](CCCNC(=N)N)C(=O)N4CCC[C@H]4C(=O)N[C@@H](Cc4ccc(O)cc4)C(=O)N[C@H](C(=O)N[C@@H](CC(C)C)C(=O)O)C(C)(C)C)C3=O)C1=O)[C@]1(C)O[C@H]1[C@H](C)[C@@H]1C[C@@](O)(NC(=O)O1)[C@H](OC)/C=C/C=C(\C)C2 (some centres unmarked) [Compound 17] gave a Ki [1, 3] of 10.6 nM and an IC50 ([2]; NTSR1 targeted compound) of 3.9 nM.

For COc1cccc2c1C(=O)c1c(O)c3c(c(O)c1C2=O)C[C@@](O)(C(=O)CO)C[C@@H]3O[C@H]1C[C@H](NC(=O)OCCSSC(C)(C)[C@H](NC(C)=O)C(=O)N2CCC[C@H]2C(=O)N[C@@H](CCCNC(=N)N)C(=O)N[C@@H](CCCNC(=N)N)C(=O)N2CCC[C@H]2C(=O)N[C@@H](Cc2ccc(O)cc2)C(=O)N[C@H](C(=O)N[C@@H](CC(C)C)C(=O)O)C(C)(C)C)[C@H](O)[C@H](C)O1 [Compound 51] (Ac-[Pen](X3)PRRPY[Tle]L-OH), the Ki [1, 3] was 1.34 nM and the IC50 ([2]; NTSR1 targeted compound) was 1600 nM.

COc1cc2cc(c1Cl)N(C)C(=O)C[C@H](OC(=O)[C@H](C)N(C)C(=O)CCSC1CC(=O)N(CCCNC(=O)CNC(=O)[C@H](CC(C)C)NC(=O)[C@H](Cc3ccccc3)NC(=O)CNC(=O)CCCCCN3C(=O)CC(SC(C)(C)[C@H](NC(C)=O)C(=O)N4CCC[C@H]4C(=O)N[C@@H](CCCNC(=N)N)C(=O)N[C@@H](CCCNC(=N)N)C(=O)N4CCC[C@H]4C(=O)N[C@@H](Cc4ccc(O)cc4)C(=O)N[C@H](C(=O)N[C@@H](CC(C)C)C(=O)O)C(C)(C)C)C3=O)C1=O)[C@]1(C)O[C@H]1[C@H](C)[C@@H]1C[C@@](O)(NC(=O)O1)[C@H](OC)/C=C/C=C(\C)C2 (some centres unmarked) [Compound 16] gave a Ki [1, 3] of 1.64 nM and an IC50 ([2]; NTSR1 targeted compound) of 15 nM.

For COc1cc2cc(c1Cl)N(C)C(=O)C[C@H](OC(=O)[C@H](C)N(C)C(=O)CCSC1CC(=O)N(CCCNC(=O)CNC(=O)[C@H](CC(C)C)NC(=O)[C@H](Cc3ccccc3)NC(=O)CNC(=O)CCCCCN3C(=O)CC(SCCC(=O)NCCCC[C@H](NC(C)=O)C(=O)N4CCC[C@H]4C(=O)N[C@@H](CCCCN)C(=O)N[C@@H](CCCNC(=N)N)C(=O)N4CCC[C@H]4C(=O)N[C@@H](Cc4ccc(O)cc4)C(=O)N[C@H](C(=O)N[C@@H](CC(C)C)C(=O)O)C(C)(C)C)C3=O)C1=O)[C@]1(C)O[C@H]1[C@H](C)[C@@H]1C[C@@](O)(NC(=O)O1)[C@H](OC)/C=C/C=C(\C)C2 (some centres unmarked) [Compound 33], the Ki [1, 3] was 2.32 nM and the IC50 ([2]; NTSR1 targeted compound) was 105 nM.

In the case of COc1cc2cc(c1Cl)N(C)C(=O)C[C@H](OC(=O)[C@H](C)N(C)C(=O)CCSC1CC(=O)N(CCCNC(=O)CNC(=O)[C@H](CC(C)C)NC(=O)[C@H](Cc3ccccc3)NC(=O)CNC(=O)CCCCCN3C(=O)CC(SC(C)(C)[C@H](NC(C)=O)C(=O)N4CCC[C@H]4C(=O)N[C@@H](CCCNC(=N)N)C(=O)N(C)[C@@H](CCCNC(=N)N)C(=O)N4CCC[C@H]4C(=O)N[C@@H](Cc4c[nH]c5ccccc45)C(=O)N[C@H](C(=O)N[C@@H](CC(C)C)C(=O)O)C(C)(C)C)C3=O)C1=O)[C@]1(C)O[C@H]1[C@H](C)[C@@H]1C[C@@](O)(NC(=O)O1)[C@H](OC)/C=C/C=C(\C)C2 (some centres unmarked) [Compound 19], the Ki [1, 3] is reported as > 100 nM and the IC50 ([2]; NTSR1 targeted compound) is reported as 6.3 nM.

COc1cc2cc(c1Cl)N(C)C(=O)C[C@H](OC(=O)[C@H](C)N(C)C(=O)CCSC1CC(=O)N(CCCNC(=O)CNC(=O)[C@H](CC(C)C)NC(=O)[C@H](Cc3ccccc3)NC(=O)CNC(=O)CCCCCN3C(=O)CC(SC(C)(C)[C@H](NC(C)=O)C(=O)N4CCC[C@H]4C(=O)N[C@@H](CCCCN)C(=O)N[C@@H](CCCNC(=N)N)C(=O)N4CCC[C@H]4C(=O)N[C@@H](Cc4ccc(O)cc4)C(=O)N[C@H](C(=O)N[C@@H](CC(C)C)C(=O)O)C(C)(C)C)C3=O)C1=O)[C@]1(C)O[C@H]1[C@H](C)[C@@H]1C[C@@](O)(NC(=O)O1)[C@H](OC)/C=C/C=C(\C)C2 (some centres unmarked) [Compound 21] showed a Ki [1, 3] of 4.65 nM and an IC50 ([2]; NTSR1 targeted compound) of 0.49 nM.
